Where two headings read alike, the source gives them in different places.
Experiments:
[1] = molecular target: biotinylated human Gal-3 (hGal-3) (Homo sapiens, UniProt P17931); test: Competitive binding assay: biotinylated hGal-3 binding to microplate-adsorbed asialofetuin (ASF), spectrophotometric
In short: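 Competitive binding of biotinylated hGal-3 to plate-adsorbed asialofetuin was measured with serially diluted compounds over 3 h at 4° C. Bound protein was detected with streptavidin-peroxidase and ABTS substrate by absorbance. IC50 values are means of several measurements.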

[2] = molecular target: human Gal-1 (hGal-1) (Homo sapiens, UniProt P09382); test: Competitive binding assay: biotinylated hGal-1 binding to microplate-adsorbed asialofetuin (ASF), spectrophotometric; conditions: hGal-1 binding to asialofetuin; Table 15; R and S epimers of selected Examples also listed; read-out: IC50 (Galectin-1 inhibition)
Chain of human Gal-1 (hGal-1) (P09382 whole entry): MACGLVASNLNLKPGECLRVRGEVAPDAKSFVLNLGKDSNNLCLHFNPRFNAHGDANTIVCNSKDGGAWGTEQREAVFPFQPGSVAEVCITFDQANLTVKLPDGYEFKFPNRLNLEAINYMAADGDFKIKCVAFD
In short: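 Biotinylated hGal-1 (300-1000 ng/mL) incubated with compound on asialofetuin-coated plates 3 hours at 4 °C, washed, then streptavidin-peroxidase (80 ng/mL) 1 hour at 4 °C. ABTS substrate read spectrophotometrically; IC50 reported as mean of several measurements.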

[3] = Gal-3 inhibition, Table 4, read-out: IC50
[4] = Table 6, hGal-3, read-out: IC50 (Gal-3 inhibition)
[5] = Gal-3 inhibition, Table 5, read-out: IC50
[6] = Table 12, hGal-3, read-out: IC50 (Gal-3 inhibition)

Chain of biotinylated human Gal-3 (hGal-3) (P17931 whole entry): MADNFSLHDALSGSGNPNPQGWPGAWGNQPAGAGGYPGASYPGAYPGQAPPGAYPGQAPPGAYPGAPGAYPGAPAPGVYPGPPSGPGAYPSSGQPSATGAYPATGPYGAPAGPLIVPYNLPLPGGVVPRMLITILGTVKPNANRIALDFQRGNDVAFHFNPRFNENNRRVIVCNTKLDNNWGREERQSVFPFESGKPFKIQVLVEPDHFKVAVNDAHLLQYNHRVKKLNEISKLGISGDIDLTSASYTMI

Compound | IC50 [2] | IC50 [1, 5] | further results
CCC(O)(CC)C(S[C@@H]1O[C@H](CO)[C@H](O)[C@H](n2cc(-c3cc(F)c(F)c(F)c3)nn2)[C@H]1O)C(=O)N(C)CC(C)(C)F (stereo partly drawn) [Example 2.32.222., 2-(((2S,3R,4S,5R,6R)-3,5-Dihydroxy-6-(hydroxymethyl)-4-(4-(3,4,5-trifluorophenyl)-1H-1,2,3-triazol-1-yl)tetrahydro-2H-pyran-2-yl)thio)-3-ethyl-N-(2-fluoro-2-methylpropyl)-3-hydroxy-N-methylpentanamide] | 2060 nM |  | IC50 [1, 4]: 360 nM
CN(CC1CC1)C(=O)[C@H](S[C@@H]1O[C@H](CO)[C@H](O)[C@H](n2cc(-c3cc(F)c(F)c(F)c3)nn2)[C@H]1O)C1(O)CCC1 [Example 2.34.218R., (R)-N-(Cyclopropylmethyl)-2-(((2S,3R,4S,5R,6R)-3,5-dihydroxy-6-(hydroxymethyl)-4-(4-(3,4,5-trifluorophenyl)-1H-1,2,3-triazol-1-yl)tetrahydro-2H-pyran-2-yl)thio)-2-(1-hydroxycyclobutyl)-N-methylacetamide] | 20900 nM | 6080 nM | 
CO[C@@H]1[C@@H](n2cc(-c3cc(F)c(F)c(F)c3)nn2)[C@@H](O)[C@@H](CO)O[C@H]1S[C@@H](C(=O)N1CCC(F)(F)CC1)C1(O)CCC2(CCOCC2)CC1 [Example 2.72.226R.I., (R)-1-(4,4-Difluoropiperidin-1-yl)-2-(((2S,3R,4S,5R,6R)-5-hydroxy-6-(hydroxymethyl)-3-methoxy-4-(4-(3,4,5-trifluorophenyl)-1H-1,2,3-triazol-1-yl)tetrahydro-2H-pyran-2-yl)thio)-2-(9-hydroxy-3-oxaspiro[5.5]undecan-9-yl)ethan-1-one] | 39600 nM |  | IC50 ([1]; Table 13, hGal-3, read-out: IC50 (Gal-3 inhibition)): 14900 nM
(R)-2-(((2S,3R,4S,5R,6R)-3,5-Dihydroxy-6-(hydroxymethyl)-4-(4-(3,4,5-trifluorophenyl)-1H-1,2,3-triazol-1-yl)tetrahydro-2H-pyran-2-yl)thio)-2-(1-hydroxycyclohexyl)-N-methyl-N-(pyridin-2-ylmethyl)acetamide [Example 2.39.224R.] | 2820 nM | 1400 nM | 
CN(CC1CC1)C(=O)[C@H](S[C@@H]1O[C@H](CO)[C@H](O)[C@H](n2cc(-c3cc(F)c(F)c(F)c3)nn2)[C@H]1O)C1(O)CCC(F)(F)CC1 [Example 2.44.218R., (R)-N-(Cyclopropylmethyl)-2-(4,4-difluoro-1-hydroxycyclohexyl)-2-(((2S,3R,4S,5R,6R)-3,5-dihydroxy-6-(hydroxymethyl)-4-(4-(3,4,5-trifluorophenyl)-1H-1,2,3-triazol-1-yl)tetrahydro-2H-pyran-2-yl)thio)-N-methylacetamide] | 1900 nM | 1150 nM | 
CCN(CC)C(=O)C(S[C@@H]1O[C@H](CO)[C@H](O)[C@H](n2cc(-c3cc(F)c(F)c(F)c3)nn2)[C@H]1O)C(C)(C)O (stereo partly drawn) [Example 2.31.202., 2-(((2S,3R,4S,5R,6R)-3,5-Dihydroxy-6-(hydroxymethyl)-4-(4-(3,4,5-trifluorophenyl)-1H-1,2,3-triazol-1-yl)tetrahydro-2H-pyran-2-yl)thio)-N,N-diethyl-3-hydroxy-3-methylbutanamide] | 2770 nM |  | IC50 ([1]; Gal-3 inhibition, Table 3, read-out: IC50): 160 nM
CO[C@@H]1[C@@H](n2cc(-c3cc(F)c(F)c(F)c3)nn2)[C@@H](O)[C@@H](CO)O[C@H]1SC(C(=O)N(C)C1CCC(C)(C)CC1)C1(O)CCC(F)(F)CC1 (stereo partly drawn) [Example 2.44.246.I., 2-(4,4-Difluoro-1-hydroxycyclohexyl)-N-(4,4-dimethylcyclohexyl)-2-(((2S,3R,4S,5R,6R)-5-hydroxy-6-(hydroxymethyl)-3-methoxy-4-(4-(3,4,5-trifluorophenyl)-1H-1,2,3-triazol-1-yl)tetrahydro-2H-pyran-2-yl)thio)-N-methylacetamide] | 1200 nM |  | IC50 [1, 6]: 320 nM
CN(C(=O)[C@H](S[C@@H]1O[C@H](CO)[C@H](O)[C@H](n2cc(-c3cc(F)c(F)c(F)c3)nn2)[C@H]1O)C1(O)CCOCC1)c1ccccc1 [Example 2.41.231R.] | 8260 nM |  | IC50 ([1]; Table 9, hGal-3, read-out: IC50 (Gal-3 inhibition)): 3440 nM

Stronger by IC50 [2], values ahead:

IC50 [2] | IC50 [1, 5] | Compound | further results
210 nM |  | CN(C)C(=O)[C@@H](S[C@@H]1O[C@H](CO)[C@H](O)[C@H](n2cc(-c3cc(F)c(F)c(F)c3)nn2)[C@H]1O)C1(O)CCOCC1 [Example 2.41.201S., (S)-2-(((2S,3R,4S,5R,6R)-3,5-Dihydroxy-6-(hydroxymethyl)-4-(4-(3,4,5-trifluorophenyl)-1H-1,2,3-triazol-1-yl)tetrahydro-2H-pyran-2-yl)thio)-2-(4-hydroxytetrahydro-2H-pyran-4-yl)-N,N-dimethylacetamide] | IC50 [1, 3]: 60 nM
150 nM |  | CCN(C)C(=O)C(S[C@@H]1O[C@H](CO)[C@H](O)[C@H](n2cc(-c3cc(C)cc(C#N)c3)nn2)[C@H]1O)C1(O)CCOCC1 (stereo partly drawn) [Example 19.41.203., 2-(((2S,3R,4S,5R,6R)-4-(4-(3-Cyano-5-methylphenyl)-1H-1,2,3-triazol-1-yl)-3,5-dihydroxy-6-(hydroxymethyl)tetrahydro-2H-pyran-2-yl)thio)-N-ethyl-2-(4-hydroxytetrahydro-2H-pyran-4-yl)-N-methylacetamide] | IC50 ([1]; Table 11, hGal-3, read-out: IC50 (Gal-3 inhibition)): 150 nM
120 nM | 50 nM | CN(CC(C)(C)F)C(=O)C(S[C@@H]1O[C@H](CO)[C@H](O)[C@H](n2cc(-c3cc(F)c(F)c(F)c3)nn2)[C@H]1O)C1(O)CCCCC1 (stereo partly drawn) [Example 2.39.222., 2-(((2S,3R,4S,5R,6R)-3,5-Dihydroxy-6-(hydroxymethyl)-4-(4-(3,4,5-trifluorophenyl)-1H-1,2,3-triazol-1-yl)tetrahydro-2H-pyran-2-yl)thio)-N-(2-fluoro-2-methylpropyl)-2-(1-hydroxycyclohexyl)-N-methylacetamide] | 
650 nM |  | CO[C@@H]1[C@@H](n2cc(-c3cc(F)c(F)c(F)c3)nn2)[C@@H](O)[C@@H](CO)O[C@H]1SC(C(=O)N(C)CC(F)(F)F)C1(O)CCC(F)(F)CC1 (stereo partly drawn) [Example 2.44.241.I., 2-(4,4-Difluoro-1-hydroxycyclohexyl)-2-(((2S,3R,4S,5R,6R)-5-hydroxy-6-(hydroxymethyl)-3-methoxy-4-(4-(3,4,5-trifluorophenyl)-1H-1,2,3-triazol-1-yl)tetrahydro-2H-pyran-2-yl)thio)-N-methyl-N-(2,2,2-trifluoroethyl)acetamide] | IC50 [1, 6]: 180 nM
110 nM | 50 nM | CCN(C)C(=O)[C@@H](S[C@@H]1O[C@H](CO)[C@H](O)[C@H](n2cc(-c3cc(F)c(F)c(F)c3)nn2)[C@H]1O)C1(O)CC(F)(F)C1 [Example 2.33.203S., (S)-2-(3,3-Difluoro-1-hydroxycyclobutyl)-2-(((2S,3R,4S,5R,6R)-3,5-dihydroxy-6-(hydroxymethyl)-4-(4-(3,4,5-trifluorophenyl)-1H-1,2,3-triazol-1-yl)tetrahydro-2H-pyran-2-yl)thio)-N-ethyl-N-methylacetamide] | 
30 nM |  | CC(C)(O)C(S[C@@H]1O[C@H](CO)[C@H](O)[C@H](n2cc(-c3cc(F)c(F)c(F)c3)nn2)[C@H]1O)C(=O)N1CCCCC1 (stereo partly drawn) [Example 2.31.208., 2-(((2S,3R,4S,5R,6R)-3,5-Dihydroxy-6-(hydroxymethyl)-4-(4-(3,4,5-trifluorophenyl)-1H-1,2,3-triazol-1-yl)tetrahydro-2H-pyran-2-yl)thio)-3-hydroxy-3-methyl-1-(piperidin-1-yl)butan-1-one] | IC50 [1, 4]: 70 nM
72 nM |  | CN(Cc1ccccc1)C(=O)C(S[C@@H]1O[C@H](CO)[C@H](O)[C@H](n2cc(-c3cc(F)c(F)c(F)c3)nn2)[C@H]1O)C1(O)CCOCC1 (stereo partly drawn) [Example 2.41.207., N-Benzyl-2-(((2S,3R,4S,5R,6R)-3,5-dihydroxy-6-(hydroxymethyl)-4-(4-(3,4,5-trifluorophenyl)-1H-1,2,3-triazol-1-yl)tetrahydro-2H-pyran-2-yl)thio)-2-(4-hydroxytetrahydro-2H-pyran-4-yl)-N-methylacetamide] | IC50 [1, 3]: 70 nM
950 nM |  | CC1CCN1C(=O)C(S[C@@H]1O[C@H](CO)[C@H](O)[C@H](n2cc(-c3cc(F)c(F)c(F)c3)nn2)[C@H]1O)C1(O)CCOCC1 (stereo partly drawn) [Example 2.41.204., 2-(((2S,3R,4S,5R,6R)-3,5-Dihydroxy-6-(hydroxymethyl)-4-(4-(3,4,5-trifluorophenyl)-1H-1,2,3-triazol-1-yl)tetrahydro-2H-pyran-2-yl)thio)-2-(4-hydroxytetrahydro-2H-pyran-4-yl)-1-(2-methylazetidin-1-yl)ethan-1-one] | IC50 [1, 3]: 210 nM
130 nM |  | CCN(CC1CC(F)(F)C1)C(=O)C(S[C@@H]1O[C@H](CO)[C@H](O)[C@H](n2cc(-c3cc(F)c(F)c(F)c3)nn2)[C@H]1OC)C1(O)CCC(F)(F)CC1 (stereo partly drawn) [Example 2.44.256.I.] | IC50 ([1]; Table 10, hGal-3, read-out: IC50 (Gal-3 inhibition)): 50 nM
520 nM | 380 nM | O=C(C(S[C@@H]1O[C@H](CO)[C@H](O)[C@H](n2cc(-c3cc(F)c(F)c(F)c3)nn2)[C@H]1O)C1(O)CCC1)N1CCCCC1 (stereo partly drawn) [Example 2.34.208., 2-(((2S,3R,4S,5R,6R)-3,5-Dihydroxy-6-(hydroxymethyl)-4-(4-(3,4,5-trifluorophenyl)-1H-1,2,3-triazol-1-yl)tetrahydro-2H-pyran-2-yl)thio)-2-(1-hydroxycyclobutyl)-1-(piperidin-1-yl)ethan-1-one] | 
